Test results taken from PMC6940354, “Comparative Assessment of the New PDE7 Inhibitor – GRMS-55 and Lisofylline in Animal Models of Immune-Related Disorders: A PK/PD Modeling Approach” (Pharmaceutical Research, 2020).
Marks after values point to notes of the source that are not given here.

Assays:
[1] = system: LPS-stimulated murine macrophages (RAW263.7 cells); design: method as in PMID 14998551; conditions: LPS-stimulated murine macrophage cell line ref [31]; read-out: IC50, TNF-α production; cited from earlier work
[2] = depending on the species; earlier study ref [37]; cited from earlier work
[3] = system: cAMP degradation; design: method as in PMID 28730281; conditions: rats, cAMP as a marker of pharmacological response ref [9]; cited from earlier work
[4] = target: T1, hrPDE7A (Homo sapiens, UniProt Q13946); test: PDE-Glo Phosphodiesterase Assay, hrPDE7A; type: biochemical; conditions: cAMP substrate, read-out: IC50 PDE7A, Estimate (CV%)
T1 construct: purchased SignalChem, Richmond, Canada
Experimental: Inhibitory activity of the investigated and reference compounds against various subtypes of PDEs was analyzed using the PDE-Glo Phosphodiesterase Assay following the manufacturer’s instruction (Promega Corp., USA). […] The values of IC50, Imax, and γ parameters of the investigated and reference compounds were estimated using non-linear regression in Phoenix WinNonlin v. […] Each sample was performed in quadruplicate and the relative activity of each sample was calculated as E=sample activity/control activity·100% .
One and a half μL aliquots of PDE-Glo reaction buffer containing appropriate amounts of human recombinant PDE (hrPDE) 1B, 2A, 3A, 4B, 4D, 5A, 7A, or 10A (SignalChem, Richmond, Canada) were placed into separate wells of a 384-well plate (Thermo Scientific, USA). The investigated compounds were initially dissolved in DMSO and then a serial dilution with DMSO was performed. Each dilution was mixed with PDE-Glo reaction buffer at a ratio of 1:5 (v/v). Then, 1 μL of the solution containing a PDE inhibitor and 2.5 μL of the substrate solution were added to each well. cGMP was used as a substrate in the case of hrPDE2A and hrPDE5A, while cAMP for other types of hrPDEs. The samples were incubated for 10 min at 30°C. […] The luminescence of each sample was measured by a microplate reader POLARstar Omega (BMG LABTECH, Germany).

[5] = design: method as in PMID 27065076; conditions: male Wistar rats; data already published ref [10]; cited from earlier work

T1 sequence (Q13946 whole entry): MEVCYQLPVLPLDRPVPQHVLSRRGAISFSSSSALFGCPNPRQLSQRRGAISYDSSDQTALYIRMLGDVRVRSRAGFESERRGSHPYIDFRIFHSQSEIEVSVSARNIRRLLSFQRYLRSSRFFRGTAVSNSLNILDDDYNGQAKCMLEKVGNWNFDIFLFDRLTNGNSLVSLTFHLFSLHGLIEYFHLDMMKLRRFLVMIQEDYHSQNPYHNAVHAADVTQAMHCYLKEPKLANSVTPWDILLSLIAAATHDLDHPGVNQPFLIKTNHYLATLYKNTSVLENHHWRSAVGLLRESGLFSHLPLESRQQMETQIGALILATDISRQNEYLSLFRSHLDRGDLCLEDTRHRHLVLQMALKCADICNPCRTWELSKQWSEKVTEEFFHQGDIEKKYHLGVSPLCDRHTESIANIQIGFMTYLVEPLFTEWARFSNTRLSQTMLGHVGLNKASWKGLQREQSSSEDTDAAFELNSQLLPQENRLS

Row | SMILES | IC50 [1] [µM] | elimination half-life [2] [h] | IC50 value for the inhibition of cAMP degradation [3] [µg/mL] | IC50 [4] [µM] | VLSF, volume of distribution of (±)-LSF, Estimate (CV%) [5] | Vmax, maximal elimination rate constant of (±)-LSF, Estimate (CV%) [5]
1 | COc1ccc(C2CNC(=O)C2)cc1OC1CCCC1 (stereo not drawn) [Rolipram, rolipram] | 0.0593 | 1 to 3 | – | – | – | –
2 | CC(O)CCCCn1c(=O)c2c(ncn2C)n(C)c1=O (racemic) [(±)-LSF, lisofylline] | – | – | 3.43 | 297 | 1.22 (3.4)^a L kg^−1 | 0.433 (56.9)^a mg min^−1 kg^−1
